# Laboratory results: patent US7767665B2, “1,3-benzothiazinone derivatives and use thereof” (Takeda Pharmaceutical Company Limited, priority 2001, dated 2010)
row,melting point,SMILES
1,215 °C (dec.),"CN(CC(=O)O)c1nccc(-c2nc(=O)c3ccccc3s2)n1 [Example 294, {Methyl [6-(4-oxo-4H-1,3-benzothiazin-2-yl)-2-pyrimidinyl]amino}acetic acid]"
2,247 to 248 °C,"CC(C)(C)OC(=O)CNc1nccc(-c2nc(=O)c3ccccc3s2)n1 [Example 295, tert-Butyl {[6-(4-oxo-4H-1,3-benzothiazin-2-yl)-2-pyrimidinyl]amino}acetate]"
3,283 to 284 °C,"O=C(O)CNc1nccc(-c2nc(=O)c3ccccc3s2)n1 [Example 296, {[6-(4-Oxo-4H-1,3-benzothiazin-2-yl)-2-pyrimidinyl]amino}acetic acid]"
4,160.5 °C (dec.),CN(C)CCSc1cncc(-c2nc(=O)c3ccccc3s2)n1 [Example 297]
5,213 to 214 °C,"CSc1ccnc(-c2nc(=O)c3ccccc3s2)c1 [Example 298, 2-[4-(Methylthio)-2-pyridyl]-4H-1,3-benzothiazine-4-one]"
6,205 to 206 °C,"C[S+]([O-])c1ccnc(-c2nc(=O)c3ccccc3s2)c1 (centres unmarked) [Example 299, 2-[4-(Methylsulfinyl)-2-pyridyl]-4H-1,3-benzothiazine-4-one]"
7,300 to 301 °C,"CS(=O)(=O)c1ccnc(-c2nc(=O)c3ccccc3s2)c1 [Example 300, 2-[4-(Methylsulfonyl)-2-pyridyl]-4H-1,3-benzothiazine-4-one]"
8,141.3 to 141.6 °C,"CC(=O)OCCCc1cccc(-c2nc(=O)c3ccccc3s2)n1 [Example 301, 3-[6-(4-Oxo-4H-1,3-benzothiazin-2-yl)-2-pyridyl]propyl acetate]"
9,145.5 to 146 °C,"O=c1nc(-c2cccc(CCCO)n2)sc2ccccc12 [Example 302, 2-[6-(3-Hydroxypropyl)-2-pyridyl]-4H-1,3-benzothiazine-4-one]"
10,87 to 88 °C,"CCOC(=O)CCCCc1cccc(-c2nc(=O)c3ccccc3s2)n1 [Example 303, Ethyl 5-[6-(4-oxo-4H-1,3-benzothiazin-2-yl)-2-pyridyl]valerate]"
11,161.9 to 162.3 °C,"O=C(O)CCCCc1cccc(-c2nc(=O)c3ccccc3s2)n1 [Example 304, 5-[6-(4-Oxo-4H-1,3-benzothiazin-2-yl)-2-pyridyl]valeric acid]"
12,156.6 to 157 °C,"O=c1nc(-c2cccc(CCc3nnn[nH]3)n2)sc2ccccc12 [Example 305, 2-{6-[2-(1H-1,2,3,4-tetrazol-5-yl)ethyl]-2-pyridyl}-4H-1,3-benzothiazine-4-one]"
13,156.6 to 157 °C,"N#CCCc1cccc(-c2nc(=O)c3ccccc3s2)n1 [Example 306, 3-[6-(4-Oxo-4H-1,3-benzothiazin-2-yl)-2-pyridyl]propionitrile]"
14,148.6 to 150.6 °C,"O=C(O)CCCCCCc1cccc(-c2nc(=O)c3ccccc3s2)n1 [Example 307, 7-[6-(4-Oxo-4H-1,3-benzothiazin-2-yl)-2-pyridyl]heptanoic acid]"
15,215.3 to 215.9 °C,"O=C(O)CCc1ccnc(-c2nc(=O)c3ccccc3s2)c1 [Example 308, 3-[2-(4-Oxo-4H-1,3-benzothiazin-2-yl)-4-pyridyl]propionic acid]"
16,135.8 to 136.7 °C,"CC(C)(C)OC(=O)CCc1ccnc(-c2nc(=O)c3ccccc3s2)c1 [Example 309, tert-butyl 3-[2-(4-oxo-4H-1,3-benzothiazin-2-yl)-4-pyridyl]propionate]"
17,284.3 to 285 °C,"O=C(O)/C=C/c1ccnc(-c2nc(=O)c3ccccc3s2)c1 [Example 310, (E)-3-[2-(4-Oxo-4H-1,3-benzothiazin-2-yl)-4-pyridyl]acrylic acid]"
18,196 to 196.7 °C,"CC(C)(C)OC(=O)/C=C/c1ccnc(-c2nc(=O)c3ccccc3s2)c1 [Example 311, tert-Butyl (E)-3-[2-(4-oxo-4H-1,3-benzothiazin-2-yl)-4-pyridyl]acrylate]"
19,219.2 to 219.8 °C,"O=C(O)CNC(=O)CCc1cccc(-c2nc(=O)c3ccccc3s2)n1 [Example 312, ({3-[6-(4-Oxo-4H-1,3-benzothiazin-2-yl)-2-pyridyl]propanoyl}amino)acetic acid]"
20,210.5 to 211 °C,"O=C(O)[C@@H]1CCCN1C(=O)CCc1cccc(-c2nc(=O)c3ccccc3s2)n1 [Example 313, 1-{3-[6-(4-Oxo-4H-1,3-benzothiazin-2-yl)-2-pyridyl]propanoyl}proline]"
21,194.5 to 194.8 °C,"CN(CC(=O)O)C(=O)CCc1cccc(-c2nc(=O)c3ccccc3s2)n1 [Example 314, (Methyl{3-[6-(4-oxo-4H-1,3-benzothiazin-2-yl)-2-pyridyl]propanoyl}amino)acetic acid]"
22,120.2 to 120.7 °C,"CCOC(=O)C(C)Cc1cccc(-c2nc(=O)c3ccccc3s2)n1 (centres unmarked) [Example 315, Ethyl 2-methyl-3-[6-(4-oxo-4H-1,3-benzothiazin-2-yl)-2-pyridyl]propionate]"

row,melting point,SMILES
1,250 °C (dec.),"O=c1nc(-c2cc(CCc3nnn[nH]3)ccn2)sc2ccccc12 [Example 316, 2-{4-[2-(1H-1,2,3,4-Tetrazol-5-yl)ethyl]-2-pyridyl}-4H-1,3-benzothiazine-4-one]"
2,178.3 to 179 °C,"N#CCCc1ccnc(-c2nc(=O)c3ccccc3s2)c1 [Example 317, 3-[2-(4-Oxo-4H-1,3-benzothiazin-2-yl)-4-pyridyl]propionitrile]"
3,120.3 to 120.7 °C,"CCOC(=O)C(C)Cc1ccnc(-c2nc(=O)c3ccccc3s2)c1 (centres unmarked) [Example 318, Ethyl 2-methyl-3-[2-(4-oxo-4H-1,3-benzothiazin-2-yl)-4-pyridyl]propionate]"
4,129.4 to 130.5 °C,"Cc1cc(CCC(=O)OC(C)(C)C)cc(-c2nc(=O)c3ccccc3s2)n1 [Example 319, tert-Butyl 3-[2-methyl-6-(4-oxo-4H-1,3-benzothiazin-2-yl)-4-pyridyl]propanoate]"
5,186.4 to 187.6 °C,"Cc1cc(CCC(=O)OC(C)(C)C)cc(-c2nc(=O)c3ccc(Cl)cc3s2)n1 [Example 320, tert-Butyl 3-[2-(7-chloro-4-oxo-4H-1,3-benzothiazin-2-yl)-6-methyl-4-pyridyl]propanoate]"
6,233.2 to 234.7 °C,"Cc1cc(CCC(=O)O)cc(-c2nc(=O)c3ccccc3s2)n1 [Example 321, 3-[2-Methyl-6-(4-oxo-4H-1,3-benzothiazin-2-yl)-4-pyridyl]propionic acid]"
7,273.5 °C (dec.),"Cc1cc(CCC(=O)O)cc(-c2nc(=O)c3ccc(Cl)cc3s2)n1 [Example 322, 3-[2-(7-Chloro-4-oxo-4H-1,3-benzothiazin-2-yl)-6-methyl-4-pyridyl]propionic acid]"
8,192.3 to 194 °C,"CC(C)(C)OC(=O)CN1CCN(c2ccnc(-c3nc(=O)c4ccccc4s3)c2)C1=O [Example 323, tert-Butyl [2-oxo-3-[2-(4-oxo-4H-1,3-benzothiazin-2-yl)-4-pyridyl]-1-imidazolidinyl]acetate]"
9,271 to 273 °C,"O=C(O)CN1CCN(c2ccnc(-c3nc(=O)c4ccccc4s3)c2)C1=O [Example 324, [2-Oxo-3-[2-(4-oxo-4H-1,3-benzothiazin-2-yl)-4-pyridyl]-1-imidazolidinyl]acetic acid]"
10,211.5 to 213 °C,"CCN1CCN(c2ccnc(-c3nc(=O)c4ccccc4s3)c2)C1=O [Example 325, 2-[4-(3-Ethyl-2-oxo-1-imidazolidinyl)-2-pyridyl]-4H-1,3-benzothiazine-4-one]"
11,214.2 to 215.3 °C,"O=c1cccc(-c2nc(=O)c3ccccc3s2)[nH]1 [Example 326, 2-(6-Oxo-1,6-dihydro-2-pyridyl)-4H-1,3-benzothiazine-4-one]"
12,160 to 161 °C,"CC(C)(C)OC(=O)CCc1ccc(-c2nc(=O)c3ccccc3s2)nc1 [Example 327, tert-Butyl 3-[6-(4-oxo-4H-1,3-benzothiazin-2-yl)-3-pyridyl]propanoate]"
13,232.2 to 232.4 °C,"O=C(O)CCc1ccc(-c2nc(=O)c3ccccc3s2)nc1 [Example 328, 3-[6-(4-Oxo-4H-1,3-benzothiazin-2-yl)-3-pyridyl]propionic acid]"
14,247.5 to 247.8 °C,"NC(=O)CCc1ccc(-c2nc(=O)c3ccccc3s2)nc1 [Example 329, 3-[6-(4-Oxo-4H-1,3-benzothiazin-2-yl)-3-pyridyl]propanamide]"
15,236.3 to 236.5 °C,"NC(=O)CCc1cccc(-c2nc(=O)c3ccccc3s2)n1 [Example 330, 3-[6-(4-Oxo-4H-1,3-benzothiazin-2-yl)-2-pyridyl]propanamide]"
16,237 to 239.7 °C,"NC(=O)CCc1ccnc(-c2nc(=O)c3ccccc3s2)c1 [Example 331, 3-[6-(4-Oxo-4H-1,3-benzothiazin-2-yl)-4-pyridyl]propanamide]"
17,67.7 to 68.5 °C,"CC(C)(C)OC(=O)CCOCCc1cccc(-c2nc(=O)c3ccccc3s2)n1 [Example 334, tert-Butyl 3-[2-(6-(4-oxo-4H-1,3-benzothiazin-2-yl)-2-pyridyl)ethoxy]propanoate]"
18,236.6 to 236.7 °C,"O=C(O)CCOCCc1cccc(-c2nc(=O)c3ccccc3s2)n1 [Example 335, 3-[2-(6-(4-Oxo-4H-1,3-benzothiazin-2-yl)-2-pyridyl)ethoxy]propionic acid]"
19,84.7 to 84.9 °C,"CC(C)(C)OC(=O)CCOCc1cccc(-c2nc(=O)c3ccccc3s2)n1 [Example 336, tert-Butyl 3-[(6-(4-oxo-4H-1,3-benzothiazin-2-yl)-2-pyridyl)methoxy]propanoate]"
20,176.6 to 176.7 °C,"O=C(O)CCOCc1cccc(-c2nc(=O)c3ccccc3s2)n1 [Example 337, 3-[(6-(4-oxo-4H-1,3-benzothiazin-2-yl)-2-pyridyl)methoxy]propionic acid]"
21,109.9 to 110 °C,"Cc1cccc2c(=O)nc(-c3cccc(CCC(=O)OC(C)(C)C)n3)sc12 [Example 338, tert-Butyl 3-[6-(8-methyl-4-oxo-4H-1,3-benzothiazin-2-yl)-2-pyridyl]propanoate]"
22,283.8 °C (dec.),"N#Cc1nc(-c2nc(=O)c3ccccc3s2)ccc1CCC(=O)O [Example 340, 3-[2-Cyano-6-(4-oxo-4H-1,3-benzothiazin-2-yl)-3-pyridyl]propanoate]"
